Some test systems named below: Enterococcus faecalis; Escherichia coli O111:B4; Bacillus subtilis; Escherichia coli K-12; Escherichia coli K88; Escherichia coli 078; Escherichia coli UB1005; Acinetobacter baumannii; Escherichia coli K99; Escherichia coli UTI89; Enterobacter cloacae; Klebsiella pneumoniae; Vibrio cholerae.
What all share (assay): ≥ marks a high value that may be exact or a test limit, other limits are often not marked, values filed in µg/mL are converted to µM
For test [1], the system named is Staphylococcus aureus SAP 0017.
The test system of test [2] is Staphylococcus epidermidis.
In test [3] the test system is Pseudomonas aeruginosa H103.
The test system of test [4] is Staphylococcus aureus K147.
Test [5] relates to Salmonella typhimurium C610.
Test [6] has as its system Pseudomonas aeruginosa PAO1.
In test [7] the test system is Pseudomonas aeruginosa PA214.
For test [8], the system named is Salmonella enterica subsp. enterica serovar Pullorum ATCC 7913.
Test [9] relates to Listeria monocytogenes CGMCC 1.1075.
In test [10] the test system is Salmonella enterica subsp. enterica serovar Typhimurium ATCC 14028.
In test [11] the test system is Staphylococcus epidermidis ATCC 12228.
Test [12] deals with Staphylococcus aureus ATCC 25923.
The subject of test [13] is Bacillus cereus CGMCC 1.932.
Test [14] relates to Pseudomonas aeruginosa ATCC 27853.
Test [15] relates to Enterococcus faecalis ATCC 29212.
In test [16] the test system is Bacillus subtilis CMCC 63501.
The test system of test [17] is Staphylococcus aureus ATCC 43300.
Test [18] concerns Salmonella typhimurium ATCC 7731.
In test [19] the test system is Escherichia coli ATCC 35218.
In test [20] the test system is Escherichia coli ATCC 25922.
Test [21] has as its system Klebsiella pneumoniae ATCC 700603.
The test system of test [22] is Klebsiella pneumoniae NDM-1.
In test [23] the test system is Enterococcus faecalis 1F-1.
The test system of test [24] is Enterococcus faecium 5F-10.
In test [25] the test system is Staphylococcus aureus ATCC 29213.
Test [26] has as its system Proteus mirabilis ATCC 35659.
In test [27] the test system is Bacillus amyloliquefaciens ATCC 23842.
For test [28], the system named is Bacillus cereus ATCC 14579.
Test [29] has as its system Bacillus subtilis ATCC 6051.
Test [30] has as its system Bacillus licheniformis ATCC 14580.
Test [31] has as its system Salmonella enterica ATCC H9812.
The subject of test [32] is Escherichia coli CVCC 1515.

Converted amounts (≈) assume the structure as drawn. Where only a bound is given, the exact number is not on record here.

In general, MIC refers to the smallest concentration in the dilution series that meets the test's criterion for growth inhibition. High values mean weaker potency, low ones greater potency. Turning to `CC(C)C[C@H](NC(=O)[C@H](CCCCN)NC(=O)[C@H](CCCCN)NC(=O)[C@H](Cc1ccccc1)NC(=O)[C@H](Cc1ccccc1)NC(=O)[C@H](CO)NC(=O)[C@H](CCCCN)NC(=O)[C@@H](N)CCCCN)C(=O)N[C@H](C(=O)N[C@@H](CO)C(=O)N[C@H](C(=O)N[C@@H](C)C(=O)N[C@@H](CO)C(=O)N[C@@H](CO)C(=O)N[C@H](C(=O)N[C@@H](CC(C)C)C(=O)N[C@@H](CO)C(=O)O)C(C)C)C(C)C)[C@@H](C)O` [KKSFFKKLTSVASSVLS], the MIC (in test [1]; in test [2]; in [3]; in test [4]; in the test on Enterococcus faecalis; against Escherichia coli O111:B4) was ≥ 68.9 µM in each case. The MIC (with Bacillus subtilis; in [5]) was ≥ 68.9 µM in each case.
With `C[C@H](NC(=O)[C@H](C)NC(=O)[C@H](CCCCN)NC(=O)[C@H](Cc1ccccc1)NC(=O)[C@H](C)NC(=O)[C@H](CCCCN)NC(=O)[C@H](C)NC(=O)[C@H](Cc1c[nH]c2ccccc12)NC(=O)[C@H](C)NC(=O)[C@H](CCCCN)NC(=O)[C@H](C)NC(=O)[C@H](Cc1ccccc1)NC(=O)[C@H](CCCCN)NC(=O)[C@H](CCCCN)NC(=O)[C@H](C)NC(=O)[C@H](C)NC(=O)[C@@H](N)CCCCN)C(N)=O` [KAAKKFAKAWAKAFKAA], the results for the minimum inhibitory concentration (MIC) (with Escherichia coli K-12; in [6]; in test [7]) were 12.5 µM (≈ 22.9 µg/mL), 50 µM (≈ 91.8 µg/mL) and ≥ 50 µM, respectively.
In the case of `NC(=O)[C@H](Cc1ccccc1)NC(=O)[C@H](CCCN=C(N)N)NC(=O)[C@H](Cc1c[nH]c2ccccc12)NC(=O)[C@H](CCCN=C(N)N)NC(=O)[C@H](Cc1c[nH]c2ccccc12)NC(=O)[C@H](Cc1c[nH]c2ccccc12)NC(=O)[C@H](Cc1c[nH]c2ccccc12)NC(=O)[C@H](CCCN=C(N)N)NC(=O)[C@H](Cc1c[nH]c2ccccc12)NC(=O)[C@@H](N)CCCN=C(N)N` [RWRWWWRWRF], the MIC in test [8] was determined as 8 µM (≈ 13.8 µg/mL); in the test on Escherichia coli K88 it was 4 µM (≈ 6.88 µg/mL); in the test on Escherichia coli 078 it was 4 µM (≈ 6.88 µg/mL); in test [6], 4 µM (≈ 6.88 µg/mL); in [9], 1 µM (≈ 1.72 µg/mL); in [10], 8 µM (≈ 13.8 µg/mL). Moreover, the MIC is 8 µM (≈ 13.8 µg/mL) in the test with Escherichia coli UB1005; 2 µM (≈ 3.44 µg/mL) in test [11]; 2 µM (≈ 3.44 µg/mL) in test [12]; 2 µM (≈ 3.44 µg/mL) against Acinetobacter baumannii; 8 µM (≈ 13.8 µg/mL) in test [13]; 16 µM (≈ 27.5 µg/mL) in test [14]. The MIC in test [15] amounted to 4 µM (≈ 6.88 µg/mL); in test [16], 2 µM (≈ 3.44 µg/mL); in [17], 2 µM (≈ 3.44 µg/mL); against Escherichia coli K99, 4 µM (≈ 6.88 µg/mL); in test [18], 4 µM (≈ 6.88 µg/mL).
As to `CC[C@H](C)[C@H](NC(=O)[C@@H](NC(=O)[C@@H]1CCCN1C(=O)[C@H](CO)NC(=O)[C@H](CC(C)C)NC(=O)[C@H](CCCCN)NC(=O)[C@H](CCCCN)NC(=O)[C@H](Cc1ccccc1)NC(=O)[C@H](CC(C)C)NC(=O)[C@H](CCCCN)NC(=O)[C@H](CCCCN)NC(=O)[C@H](CC(C)C)NC(=O)[C@H](CCCCN)NC(=O)[C@H](CCCCN)NC(=O)[C@H](CCCN=C(N)N)NC(=O)[C@H](Cc1ccccc1)NC(=O)[C@H](CCCN=C(N)N)NC(=O)[C@H](CCCCN)NC(=O)[C@H](Cc1ccccc1)NC(=O)[C@H](CCCN=C(N)N)NC(=O)CN)C(C)C)C(=O)N1CCC[C@H]1C(=O)N[C@@H](CC(C)C)C(=O)N[C@@H](CC(C)C)C(=O)N[C@@H](Cc1cnc[nH]1)C(=O)N[C@@H](CC(C)C)C(=O)NCC(=O)O` [GRFKRFRKKLKKLFKKLSPVIPLLHLG], the minimum inhibitory concentration (MIC) (in test [19]; in test [20]; in the test with Escherichia coli UTI89; in test [6]; in test [21]; against Enterobacter cloacae) was 4 µM (≈ 13 µg/mL) throughout. Further, the minimum inhibitory concentration (MIC) is 4 µM (≈ 13 µg/mL) in test [22], 5.66 µM (≈ 18.4 µg/mL) in the test with Klebsiella pneumoniae, 4 µM (≈ 13 µg/mL) in test [14] and 2.83 µM (≈ 9.19 µg/mL) with Vibrio cholerae.
Take `CC(C)C[C@H](NC(=O)[C@@H](N)CC(C)C)C(=O)N[C@@H](CO)C(=O)N[C@@H](CCCN=C(N)N)C(=O)N[C@H](C(=O)N[C@@H](CC(=O)O)C(=O)N[C@@H](CCC(=O)O)C(=O)O)C(C)C` [LLSRVDE]: the minimum inhibitory concentration (MIC) in test [23] is ≥ 154 µM; in test [20] it was > 154 µM; in test [24], ≥ 154 µM; in test [25] it was > 154 µM; in [6], > 154 µM; in [26], ≥ 154 µM. The minimal inhibitory concentration (MIC) in [27], in [28], in [29], in test [30] and in test [31] was ≥ 154 µM each time.
As for `CC(C)C[C@H](NC(=O)[C@H](CC(C)C)NC(=O)[C@H](CCCCN)NC(=O)[C@H](C)NC(=O)[C@H](C)NC(=O)[C@H](C)NC(=O)[C@H](CCCCN)NC(=O)[C@H](C)NC(=O)[C@H](C)NC(=O)[C@H](C)NC(=O)[C@H](CCCCN)NC(=O)[C@H](Cc1c[nH]c2ccccc12)NC(=O)[C@@H](N)CC(C)C)C(N)=O` [LWKAAAKAAAKLL], the minimal inhibitory concentration (MIC) in the test with Escherichia coli K88 is 4 µM (≈ 5.41 µg/mL); in test [20], 1 µM (≈ 1.35 µg/mL); in test [32], 8 µM (≈ 10.8 µg/mL); in test [25], 4 µM (≈ 5.41 µg/mL); in [10] it was 32 µM (≈ 43.3 µg/mL); in the test with Escherichia coli UB1005 it was 8 µM (≈ 10.8 µg/mL). The MIC in [11] and in test [14] was 4 µM (≈ 5.41 µg/mL) in each case.
